1 molecule from the NIST ThermoML archive (doi:10.1021/je049706p) can be followed below.

A short description of the data set: refractive index (Na D-line) (dimensionless). Particulars: 293.1 K; 101.33 kPa; Liquid; Standard Abbe refractometry.

The structures appear in SMILES notation. Numbers after ± are expanded uncertainties.

One may read the refractive index as the speed of light in vacuum divided by its phase velocity in the sample. For the molecule `CN1CCCC1=O` [N-methylpyrrolidone], the refractive index was 1.4686 ± 0.0012.
